“And” between values parts separate entries of the source, which are not always exact repeats. Equal entries are not always repeated.
Assay: xn = mol fraction of the nth substance listed

CC(Cl)(Cl)Cl + CC(C)=O
298.15 K, 101.33 kPa
Conditions | viscosity [mPa·s]
x1 = 0.102 | 0.3356
x1 = 0.2 | 0.3677
x1 = 0.302 | 0.4042
x1 = 0.401 | 0.4432
x1 = 0.501 | 0.4862
x1 = 0.549 | 0.5085
x1 = 0.551 | 0.5098
x1 = 0.601 | 0.5341
x1 = 0.649 | 0.5591
x1 = 0.651 | 0.56
x1 = 0.701 | 0.5875
x1 = 0.75 | 0.6158
x1 = 0.794 | 0.6443
x1 = 0.852 | 0.6824

O=CO + CC(C)=O
viscosity [mPa·s], 101 kPa
Conditions | x1 = 0.1014 | x1 = 0.2068 | x1 = 0.299 | x1 = 0.4009 | x1 = 0.4945 | x1 = 0.6083 | x1 = 0.6998 | x1 = 0.8014 | x1 = 0.8947
298.15 K | 0.3575 | 0.4002 | 0.4482 | 0.5192 | 0.5972 | 0.7312 | 0.8622 | 1.053 | 1.287
308.15 K | 0.3251 | 0.3639 | 0.4063 | 0.4659 | 0.5315 | 0.642 | 0.7455 | 0.906 | 1.079
318.15 K | 0.2954 | 0.3287 | 0.3657 | 0.4163 | 0.4726 | 0.5609 | 0.6457 | 0.7719 | 0.9139

CC(Cl)(Cl)Cl + CC(C)CCO
298.15 K, 101 kPa
Conditions | viscosity [mPa·s]
x1 = 0.113 | 3.084
x1 = 0.1681 | 2.72
x1 = 0.3013 | 2.01
x1 = 0.3885 | 1.663
x1 = 0.509 | 1.339
x1 = 0.5929 | 1.169
x1 = 0.692 | 1.035
x1 = 0.7926 | 0.913
x1 = 0.8991 | 0.817

O=C(O)CC(O)(CC(=O)O)C(=O)O + CC(O)CO
101.3 kPa, x1 = 0.333
Conditions | viscosity [mPa·s]
298 K | 2188
323 K | 571

CC(Cl)(Cl)Cl + CCC(C)=O
298.15 K, 101.33 kPa
Conditions | viscosity [mPa·s]
x1 = 0.098 | 0.4094
x1 = 0.201 | 0.438
x1 = 0.299 | 0.4678
x1 = 0.398 | 0.5001
x1 = 0.499 | 0.5361
x1 = 0.6 | 0.5757
x1 = 0.7 | 0.6196
x1 = 0.8 | 0.669
x1 = 0.9 | 0.7256

CC/C(C)=N/O + CCC(C)=O
viscosity [mPa·s], 101.3 kPa
Conditions | x1 = 0.0846 | x1 = 0.1716 | x1 = 0.2627 | x1 = 0.3557 | x1 = 0.4528 | x1 = 0.5541 | x1 = 0.6588 | x1 = 0.768 | x1 = 0.8817
293.15 K | 0.459 | 0.533 | 0.625 | 0.759 | 0.922 | 1.162 | 1.511 | 2.066 | 3.035
298.15 K | 0.438 | 0.508 | 0.592 | 0.714 | 0.86 | 1.073 | 1.368 | 1.836 | 2.619
303.15 K | 0.416 | 0.479 | 0.558 | 0.667 | 0.802 | 0.987 | 1.249 | 1.655 | 2.306

O=CO + CCC(C)=O
viscosity [mPa·s], 101 kPa
Conditions | x1 = 0.1013 | x1 = 0.2006 | x1 = 0.3007 | x1 = 0.3962 | x1 = 0.4985 | x1 = 0.602 | x1 = 0.7014 | x1 = 0.7972 | x1 = 0.9011
298.15 K | 0.4271 | 0.4706 | 0.5282 | 0.5841 | 0.6726 | 0.7807 | 0.9125 | 1.078 | 1.309
308.15 K | 0.3863 | 0.4247 | 0.4703 | 0.5186 | 0.5915 | 0.6799 | 0.787 | 0.9165 | 1.095
318.15 K | 0.3479 | 0.3801 | 0.4183 | 0.458 | 0.5195 | 0.5896 | 0.6771 | 0.7866 | 0.9246

CC(Cl)(Cl)Cl + CCC(C)O
298.15 K, 101 kPa
Conditions | viscosity [mPa·s]
x1 = 0.099 | 2.21
x1 = 0.2079 | 1.726
x1 = 0.2768 | 1.46
x1 = 0.3656 | 1.225
x1 = 0.5119 | 1.008
x1 = 0.5786 | 0.94
x1 = 0.6988 | 0.85
x1 = 0.78 | 0.808
x1 = 0.8911 | 0.781

O=CO + CCCC(C)=O
viscosity [mPa·s], 101 kPa
Conditions | x1 = 0.1002 | x1 = 0.1998 | x1 = 0.3016 | x1 = 0.3992 | x1 = 0.4881 | x1 = 0.5974 | x1 = 0.7186 | x1 = 0.8392 | x1 = 0.8701
298.15 K | 0.5043 | 0.5479 | 0.6037 | 0.6689 | 0.7348 | 0.8418 | 1.003 | 1.198 | 1.262
308.15 K | 0.4519 | 0.4876 | 0.5327 | 0.586 | 0.6424 | 0.7294 | 0.8532 | 1.011 | 1.058
318.15 K | 0.4015 | 0.4344 | 0.4713 | 0.5146 | 0.5589 | 0.6331 | 0.7325 | 0.8607 | 0.8982

CC(Cl)(Cl)Cl + CCCCCC
303.15 K, 101 kPa
Conditions | viscosity [mPa·s]
x1 = 0.1033 | 0.3166
x1 = 0.2726 | 0.3777
x1 = 0.3375 | 0.4016
x1 = 0.4011 | 0.4253
x1 = 0.5547 | 0.4864
x1 = 0.5981 | 0.5047
x1 = 0.6578 | 0.5318
x1 = 0.7595 | 0.582
x1 = 0.8388 | 0.6246
x1 = 0.9378 | 0.6833

CC/C(C)=N/O + CCCCCC
viscosity [mPa·s], 101.3 kPa
Conditions | x1 = 0.0993 | x1 = 0.1991 | x1 = 0.2977 | x1 = 0.3987 | x1 = 0.4972 | x1 = 0.5993 | x1 = 0.6977 | x1 = 0.7981 | x1 = 0.899
293.15 K | 0.345 | 0.393 | 0.461 | 0.556 | 0.69 | 0.899 | 1.213 | 1.729 | 2.695
298.15 K | 0.33 | 0.376 | 0.437 | 0.526 | 0.646 | 0.835 | 1.111 | 1.559 | 2.357
303.15 K | 0.315 | 0.357 | 0.414 | 0.495 | 0.605 | 0.776 | 1.019 | 1.411 | 2.09

CC(Cl)(Cl)Cl + CCCCCCC
303.15 K, 101 kPa
Conditions | viscosity [mPa·s]
x1 = 0.138 | 0.3932
x1 = 0.2468 | 0.4161
x1 = 0.355 | 0.442
x1 = 0.4494 | 0.4689
x1 = 0.5571 | 0.5061
x1 = 0.6233 | 0.5327
x1 = 0.7095 | 0.5716
x1 = 0.7857 | 0.6088
x1 = 0.8262 | 0.63
x1 = 0.9288 | 0.6849

CC(Cl)(Cl)Cl + CCCCCCCC
303.15 K, 101 kPa
Conditions | viscosity [mPa·s]
x1 = 0.1465 | 0.4786
x1 = 0.2573 | 0.4863
x1 = 0.3398 | 0.495
x1 = 0.4029 | 0.503
x1 = 0.4971 | 0.5195
x1 = 0.588 | 0.5408
x1 = 0.6617 | 0.5623
x1 = 0.7875 | 0.6103
x1 = 0.8238 | 0.6267
x1 = 0.9164 | 0.6735

CC(C)C1CCCCC1 + CCCCCCCCCCCCC
viscosity [mPa·s], 100 kPa
Conditions | x1 = 0.1077 | x1 = 0.1971 | x1 = 0.3025 | x1 = 0.3985 | x1 = 0.5016 | x1 = 0.5996 | x1 = 0.695 | x1 = 0.799 | x1 = 0.8956
293.15 K | 1.773 | 1.7 | 1.619 | 1.549 | 1.473 | 1.4 | 1.328 | 1.253 | 1.18
298.15 K | 1.615 | 1.551 | 1.48 | 1.419 | 1.351 | 1.287 | 1.224 | 1.158 | 1.094
303.15 K | 1.476 | 1.421 | 1.358 | 1.304 | 1.245 | 1.188 | 1.134 | 1.075 | 1.017
308.15 K | 1.356 | 1.308 | 1.253 | 1.205 | 1.153 | 1.103 | 1.055 | 1.003 | 0.95
313.15 K | 1.251 | 1.209 | 1.16 | 1.118 | 1.072 | 1.028 | 0.984 | 0.938 | 0.889
318.15 K | 1.16 | 1.123 | 1.078 | 1.041 | 1 | 0.961 | 0.922 | 0.88 | 0.836
323.15 K | 1.078 | 1.045 | 1.005 | 0.972 | 0.935 | 0.9 | 0.865 | 0.827 | 0.787

CCCCCCCCCCCCCCCC[N+](C)(C)CCOCCO.Cc1cc(Cl)ccc1OCC(=O)[O-] + CCCCCCCCCCCCCCCC[N+](C)(C)CCOCCO.Cc1cc(Cl)ccc1O[C@H](C)C(=O)[O-]
100 kPa, x1 = 0.58
Conditions | viscosity
293.15 K | 4543 mPa·s and 4543 mPa·s
303.15 K | 1909 mPa·s
313.15 K | 928.5 mPa·s
323.15 K | 493.4 mPa·s

CC(Cl)(Cl)Cl + CCCCCCCO
303.15 K, 101 kPa
Conditions | viscosity [mPa·s]
x2 = 0.1177 | 0.974
x2 = 0.2075 | 1.143
x2 = 0.4385 | 1.666
x2 = 0.5262 | 1.941
x2 = 0.5911 | 2.186
x2 = 0.6407 | 2.407
x2 = 0.7497 | 2.99
x2 = 0.8365 | 3.56
x2 = 0.9206 | 4.198

CC(Cl)(Cl)Cl + CCCCCCO
298.15 K, 101.33 kPa
Conditions | viscosity [mPa·s]
x1 = 0.101 | 3.824
x1 = 0.2 | 3.188
x1 = 0.301 | 2.631
x1 = 0.402 | 2.142
x1 = 0.502 | 1.744
x1 = 0.601 | 1.43
x1 = 0.701 | 1.188
x1 = 0.8 | 1.002

CC(Cl)(Cl)Cl + CCCCCOC(C)=O
303.15 K, 101.3 kPa
Conditions | viscosity [mPa·s]
x2 = 0.104 | 0.7366
x2 = 0.1989 | 0.7441
x2 = 0.2995 | 0.7518
x2 = 0.4018 | 0.7568
x2 = 0.5014 | 0.7653
x2 = 0.5996 | 0.7667
x2 = 0.6961 | 0.7663
x2 = 0.7935 | 0.7658
x2 = 0.8993 | 0.7589

From the CheMixHub viscosity set
